Measurements taken from patent US10894043B2, “Pharmaceutical composition” (Kyowa Kirin Co., Ltd., priority 2016, dated 2021).

Key:
[1] = tested on: laser-induced choroidal neovascularization model of a rat; assay: Test Example 7: anti-angiogenic effect on laser-induced choroidal neovascularization model of rat; type: in vivo, Brown Norway rat; settings: 14 days after laser irradiation, ocular instillation twice a day 5 μL/eye (aflibercept: intravitreal 5 μL/eye once), n=12 or 13, * p<0.05 vs vehicle
Method: The mydriasis of the eyeballs of each male Brown Norway rat (n=12 or 13 for each group) was caused with mydriatic eye drops for examination. A ketamine hydrochloride/xylazine hydrochloride (7:1, v/v) mixed solution was intramuscularly administered (1 mL/kg) to the femur for general anesthesia. Then, the right eyeground was observed using a slit lamp, and 8 sites in the retina were irradiated with laser (wavelength: 532 nm, spot size: 80 μm, irradiation time: 0.05 sec, output: 120 mW) using a multicolor laser photocoagulator to prepare laser-induced choroidal neovascularization model animals.
A vehicle of Example 1 or the nanoparticle composition of the present invention obtained in each of Examples 1 and 2 was administered twice a day by ocular instillation (5 μL/eye, 6 hr:18 hr interval) to each model animal from immediately after the laser irradiation to 14 days after the laser irradiation. […]
A choroidal neovascular site was photographed using a confocal microscope (Nikon ECLIPSE TE 2000-U). For choroidal neovascular evaluation, an area (unit: pixel) that contained a newly formed blood vessel and was at the inner side relative to the highest raised portion was calculated using ImageJ (National Institutes of Health). […]

[2] = tested on: laser-induced choroidal neovascularization model of a cynomolgus monkey; assay: Test Example 8: laser-induced choroidal neovascularization model of cynomolgus monkey, incidence of grade 4 by fluorescein fundus angiography; type: in vivo; settings: n = 6
Method: Twenty-one days before the start of drug administration, both the eyes of each animal (all cases) were irradiated with laser to prepare animal models. Drops of a mydriatic agent were placed in the animal eyes to be irradiated. After confirmation of mydriasis, a mixed solution of ketamine hydrochloride (50 mg/mL) and an aqueous xylazine solution (20 mg/mL) [7:1 (v/v)] was intramuscularly administered (0.2 mL/kg or 10 mg/kg) to each animal. An appropriate amount of a special aid for contact lens placement to the cornea (Scopisol Solution for Eye) was added dropwise to an eyepiece of a retinal laser lens. The retinal laser lens was pressure-bonded to the eyes to be irradiated, and a yellow spot was confirmed. After the confirmation of a yellow spot, 8 sites around the yellow spot excluding the central pit were irradiated with green laser (wavelength: 532 nm, irradiation spot size: 80 μm, irradiation time: 0.1 sec, output: 1000 mW) using a multicolor laser photocoagulator (MC-500, Nidek Co., Ltd.).
According to the test configuration shown in Table 46, a vehicle, the nanoparticle composition of the present invention prepared according to Example 1, and the solution composition obtained in Comparative Example 2 were administered four times a day by ocular instillation for 35 days to the animal. Aflibercept (EYLEA(Registered Trademark) solution for intravitreal injection, Bayer Corp.) was intravitreally injected (once) to the animal.
Ophthalmoscopic examination was carried out during the acclimatization period (day −1) and during the administration period (administration days 7, 14, 21, 28 and 34). Macroscopic examination and light reflex examination were carried out using a portable slit lamp (SL-15, Kowa Co., Ltd.). Drops of a mydriatic agent were placed in the animal eyes. After confirmation of mydriasis, ketamine hydrochloride (50 mg/mL) was intramuscularly administered (0.2 mL/kg or 10 mg/kg) to each animal. The anterior segment of the eye and the ocular media were examined using a portable slit lamp, while the eyegrounds were examined using a head-type binocular indirect ophthalmoscope (IO-aSmall Pupil, Neitz Instruments Co., Ltd.). The eyegrounds were photographed using a fundus camera (VX-10a, Kowa Co., Ltd.) in all cases.
Fluorescein fundus angiography was carried out during the acclimatization period (day −1) and during the administration period (administration days 7, 14, 21, 28 and 34). For examination, a contrast medium (Fluorescite Intravenous Injection 500 mg, Alcon Japan Ltd.) was administered (0.1 mL/kg or 0.1 mL/s) from the cephalic vein of the forearm under mydriasis and anesthesia of the macroscopic examination and the ophthalmoscopic examination. Approximately 1, 3, and 5 minutes after the contrast medium administration, photographs were taken using a fundus camera. Choroidal neovascular grading was carried out on an irradiation spot basis. The fluorescein fundus angiographic images were observed and graded on an irradiation spot basis according to the criteria of Table 47.
The incidences of grades 1 to 4 of each eye at each point in time of examination were each calculated according to the following expression: Incidence of grade (%)=The number of irradiation spots/8×100

Substance: Aflibercept [Aflibercept (EYLEA)]
- choroidal neovascularization area, mean [1]: 102931.7* pixel
- Incidence of grade 4 ([2]; administration day 7, mean): 4.2%
- Incidence of grade 4 ([2]; administration day 14, mean): 4.2%
- Incidence of grade 4 ([2]; administration day 21, mean): 4.2%
- Incidence of grade 4 ([2]; administration day 28, mean): 4.2%
- Incidence of grade 4 ([2]; administration day 34, mean): 4.2%
- Incidence of grade 4 ([2]; day −1 (acclimatization period, before administration), mean): 43.8%
